# From patent US10765758B2, “Optimized in vivo delivery system with endosomolytic agents for nucleic acid conjugates” (ONXEO, priority 2010, dated 2020)
# {Cy3} = cyanine 3 fluorescent label; {Chol} = cholesterol
# Legend:
# [1] = Fluorescence of formulated cy3-Dbait before transfection; conditions: fluorescence at FL2 value of the cy3-Dbait formulation
# Procedure: (§1) The inventors monitored the cellular uptake of the different complexes using a fluorescent cy3-modified Dbait. The initial fluorescence of the cy3-Dbait complex was monitored immediately before transfection. […] Cellular content of human transfected fibroblast cells was measured by flow cytometry analysis.
# Cells were directly analyzed by flow cytometry. For immunofluorescence detection by flow cytometry, the cells were fixed in 2% paraformaldehyde for 10 min prior to immunodetection. […] Cells were washed with PBS and resuspended in PBS with 50 μg/mL propidium iodide, 25U/ml RNaseA. Cells were analyzed by a FACSCalibur flow cytometer (BD Biosciences, Franklin Lakes, N.J., USA) and data was analyzed using BD CellQuest Pro (BD Biosciences) and the free WinMDI 2.8 (Scripps Research Institute, La Jolla, Calif., USA) software.
# [2] = tested on: SK28 xenografted human melanoma; experiment: SK28 xenograft survival and tumor growth delay after irradiation with formulated Dbait (Table 2); conditions: IT; for Mean TGD: tumor growth delay
# Procedure: The antitumoral effect of formulated Dbait was tested in combination with radiotherapy on SK28 xenografted human melanoma. Dbait/vector complexes were administered 5 hours before each irradiation using intratumoral injections.
# SK28 or U87G xenograft tumors were obtained by injecting 10^6 tumor cells into the flanks of adult female nude mice (Charles River strain; L'Arbresle, France). […] After approximately 12 days, when the subcutaneous tumors measured 150-200 mm^3, the mice were separated into homogeneous groups of at most 12 each to receive different treatments. […] Doses were controlled by thermoluminescence dosimetry. A total dose of 30 Gy was delivered in 6 sessions at intervals of three sessions of 5 Gy per week during two weeks. Dbait molecules were prepared in 100 μL of 10% sucrose as previously described for in vitro studies except that PEI mixtures were performed without NaCl (Polyplus-transfection, Strasbourg, France). The Dbait mixtures were incubated for 15 min at room temperature before injection. CoDbait was diluted in 10% sucrose at the required concentration. Intratumoral injections of the indicated amount of Dbait were performed 5 h before each radiotherapy session. Mock treated animals were injected with 100 μL of 10% glucose according to the protocol of the associated assays. Tumor size was assessed by caliper measurements every three days and size was calculated by the formula (2× length×width^2). Mice were weighed and pictures of tumors were taken every week. For ethical reasons, the animals were sacrificed when their tumors reached 2,000 mm^3. The end point used in survival analysis was death day.
# Descriptive analyses of the tumor response were performed for each treatment and each tumor type. Day 1 was the day of the first treatment session. All animals were followed for at least 150 days. Median lifetime was estimated according to the Kaplan-Meier method. Tumor growth delay (TGD) was calculated by subtracting the mean tumor volume quadrupling time of the control group from tumor volume quadrupling times of individual mice in each treated group. The mean TGD was calculated for each treated group using the individual measurements. […] A global LogRank was first performed for each group with the same tumor type. Then treatments with Dbait were compared to the mock-treated controls. All tests were considered significant at the 0.05 significance level.
# zebrafish embryos = experiment: Injection into 1K-stage zebrafish embryos: distribution and 24 h phenotype toxicity; conditions: same concentration of Dbait, by adjuvant
# Procedure: More than 100 embryos were analyzed for each condition.
# The observation of phenotypic effects 20 hours after injection allowed assessment of Dbait activity and treatment overall toxicity. […] The 24-hour phenotypes were categorized as described (FIG. 3), allowing quantification of the injected mixture's toxicity.
# Zebrafish eggs were obtained from natural spawning of wild type or transgenic (flactin:egfp-ras) fish lines. […] Glass capillaries (Harvard Apparatus GC100-10) were pulled with a KopF vertical pipette puller (KopF 720) to make injection needles. 2 to 5 nl of Dbait solution were injected at the animal pole of embryos in cell cycle 10 and immediately processed for confocal laser scanning microscopy imaging (upright Leica SP2) with 40×/0.8 NA water dipping lens objective. Imaging was performed by simultaneous 480 nm (eGFP) and 561 nm (cy3) excitation. […] One-day-old larvae were observed under the dissecting stop and phenotypes categorized as described in FIG. 3. […] Dbait (coDbait)-cy3 50 μM was injected either alone or in combination with PEI25K (ratio N/P=9), PEI11K (ratio N/P-6), or SuperFect (10 μl/1 μg Dbait).
# [3] = tested on: SV40 transformed fibroblasts MRC-5; experiment: Flow cytometry cellular uptake of formulated Dbait-cy3 (Table 1); type: cell-based, human
# Procedure: as §1
# The Dbait molecules were made by automated solid-phase oligonucleotide synthesis. […] […] (SEQ ID NO: 4) where H is a hexaethyleneglycol linker. Studies on cells in culture were performed using SV40 transformed fibroblasts MRC-5. Cells were grown at 37° C. in monolayer cultures in complete DMEM (Gibco, Cergy-Pontoise, France) with 10% FCS and antibiotics (100 μg/mL streptomycin and 100 μg/mL penicillin) under conditions of 100% humidity, 95% air and 5% CO2. Unless otherwise specified, transfections were performed in 1.2 mL MEM medium without serum in 60 mm diameter plates. Transfection with jetPEI (Polyplus-transfection, Illkirch, France) was performed at an N/P ratio of 6 according to the manufacturer's instructions. Briefly, Dbait was diluted in 150 mM NaCl and gently mixed with an equal volume of PEI in 150 mM NaCl and added to DMEM medium without serum. coDbait was directly added to DMEM medium without serum. Transfection of Dbait molecules was performed with SuperFect reagent in 1.2 mL DMEM medium with serum (in 60 mm diameter plates) for 5 hours and then cells were left to recover for 1 hour if not indicated otherwise. For electroporation, 1.2×10^6 cells were transfected with 2 μg Dbait using the Gene Pulser II (Bio-Rad, Marnes-la-Coquette, France). At the end of the 5h transfection (time zero), medium was replaced by complete medium and cells were grown for the indicated time before being analyzed.
# Cells were transfected with different complexes with Dbait-cy3 for 5 h and allowed to grow 5 hours or 24 hours, then rapidly washed with PBS. Cells were directly analyzed by flow cytometry. For immunofluorescence detection by flow cytometry, the cells were fixed in 2% paraformaldehyde for 10 min prior to immunodetection. […] Cells were washed with PBS and resuspended in PBS with 50 μg/mL propidium iodide, 25U/ml RNaseA. Cells were analyzed by a FACSCalibur flow cytometer (BD Biosciences, Franklin Lakes, N.J., USA) and data was analyzed using BD CellQuest Pro (BD Biosciences) and the free WinMDI 2.8 (Scripps Research Institute, La Jolla, Calif., USA) software.
# SK28 melanoma xenograft = conditions: coDbait 0.6 mg IT alone (group 4) or CQ 1 mg i.p. alone (group 3), with irradiation
# Text: Survival of five groups of nude mice bearing SK28 melanoma xenografts has been studied.
# MRC5 cell line = experiment: Flow cytometry analysis of cellular uptake in the MRC5 cell line (Cy3); type: cell-based, human
# Procedure: Cellular uptake of the Dbait conjugated to cholesterol, in particular CoDbait, in comparison with the Dbait was measured by the inventors by flow cytometry analysis.
# Flow cytometry analysis of cellular uptake in the MRC5 cell line performed at 5 hours after the beginning of treatment of various transfection conditions was as described in the table.
# [4] = corrected cellular content FL2/fluorescence, Dbait 1.6 μg/mL
molecule,measurement,setting,value
"Dbait: 32-bp hairpin DNA, SEQ ID NO: 4, hexaethyleneglycol linker; mimics double strand breaks (DNA GCTGTGCCCACAACCCAGCAAACAAGCCTAGA; DNA, backbone not given here; hairpin DNA with hexaethyleneglycol linker)",fluorescence × 10e−6/μg/mL,[1],6 10e−6/μg/mL
same,Mean % TGD,[2]; 6 × 60 μg (3 nmol),114%
same,Median survival time,[2]; 6 × 60 μg (3 nmol),63
same,Cured mice,"[2]; 6 × 60 μg (3 nmol), no recurrence within 300 days",0
same,Relative risk,"[2]; 6 × 60 μg (3 nmol), versus mock",1.40
same,Mean TGD,[2]; 6 × 60 μg (3 nmol),3
same,24-hour phenotype / toxicity in zebrafish embryos,zebrafish embryos,no effect on development
same,cor MCC 5 hrs,[3]; [4],0.43
same,cor MCC 24 hrs,[3]; [4],0.56
same,fluorescence distribution of treated cells,[3]; flow cytometry,not different from untreated controls
same,MCC 24 hrs,"[3]; mean cellular content FL2 value, Dbait 1.6 μg/mL",3.45
same,MCC 5 hrs,"[3]; mean cellular content FL2 value, Dbait 1.6 μg/mL, chloroquine +/− as in row",2.65
"CCN(CC)CCCC(C)Nc1ccnc2cc(Cl)ccc12 (stereo not shown) [chloroquine, 7-chloro-4-(4-diethylamino-1-methylbutyl-amino)quinoline]",radiosensitization,SK28 melanoma xenograft,neither coDbait (group 4) nor CQ (group 3) showed significant radiosensitization
same,Mean % TGD,[2]; CQ without Dbait,142%
same,Median survival time,[2]; CQ without Dbait,68
same,Mean TGD,[2]; CQ without Dbait,8
same,MCC 5 hrs,"[3]; mean cellular content FL2 value, no Dbait, chloroquine only",3.12
"Co_siRNA_H2AX-Cy3: siRNA targeting H2AX with a cyanine 3 and a cholesterol at the 5′ and 3′ of the sense strand (sense CAACAAGAAGACGCGAAUCTT; antisense GAUUCGCGUCUUCUUGUUGTT; sense: 5' {Cy3}, 3' {Chol}, sugars by position and backbone not given here; antisense: chemistry not given here)",Cy3 fluorescence intensity @5 hrs. Mean,MRC5 cell line; 79 nM,56
same,Cy3 fluorescence intensity @5 hrs. Median,MRC5 cell line; 79 nM,53
same,Cy3 fluorescence intensity @5 hrs. Mean,MRC5 cell line; 79 nM + CQ 50 μM,63
same,Cy3 fluorescence intensity @5 hrs. Median,MRC5 cell line; 79 nM + CQ 50 μM,60
same,Cy3 fluorescence intensity @5 hrs. Mean,MRC5 cell line; 986 nM,710
same,Cy3 fluorescence intensity @5 hrs. Median,MRC5 cell line; 986 nM,661
same,Cy3 fluorescence intensity @5 hrs. Mean,MRC5 cell line; 986 nM + CQ 50 μM,1214
same,Cy3 fluorescence intensity @5 hrs. Median,MRC5 cell line; 986 nM + CQ 50 μM,1144
